Values joined by “and” are separate entries in the source; they are usually repeats but may differ in a detail not shown here. Equal values may be shown once.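 Compound exposure: 48 hours, 5 concentrations, 96-well plates. GI50 marks 50% less growth. TGI: concentration producing complete growth inhibition.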

The source of these data is PubChem BioAssay (NCI).

One test concerns OVCAR-5 ovarian. The test is described as follows: DTP human tumour cell line panel, 48 h.
As for `[O]=[V]([OH])([OH])[OH]`, the GI50 is above 100 µM and the TGI was above 100 µM.

As to `CNCc1ccc(-c2cc(-c3nc(-c4ccc(S(=O)(=O)C(C)C)cc4)cnc3N)on2)cc1`, the GI50 is 4.02 µM and the TGI was determined as 21.9 µM.

In the case of `Cc1cc(Cl)nc(N(CCNc2ccnc3cc(Cl)ccc23)Cc2ccco2)n1`, the GI50 is 2.72 µM and the TGI was determined as 8.11 µM.

For the molecule `S=C1SCN(Cc2ccccc2)CN1Cc1ccco1`, the GI50 is 9.73 µM and the TGI amounted to 21.9 µM.

As for `COc1ccccc1CNCCN1C(=O)c2ccc3c4c(ccc(c24)C1=O)C(=O)N(CCNCc1ccccc1OC)C3=O`, the GI50 was 0.68 µM and the TGI stood at 3.34 µM.

As for `CCCCCCCCCCCC[C@@H](O)[C@H]1CC[C@H]([C@H](O)CC[C@H](O)[C@@H]2CC[C@@H](CCCCCCCC3=C[C@H](C)OC3=O)O2)O1`, the TGI was above 50 µM.

Turning to `O=C(c1cccs1)c1c(C(F)(F)F)n([O-])c2cc(Cl)c(Cl)cc2[n+]1=O`, the GI50 is 1.77 µM and the TGI was 3.16 µM.

`CSc1nc2nc(-c3ccccc3)c(C)c-2c2n1C(C)C(=O)N2` (stereo unspecified): the GI50 is above 100 µM and the total growth inhibition concentration (TGI) is above 100 µM.

On to `COc1cc(-c2nccc3[nH]c(-c4ccc5cc[nH]c5c4)nc23)cc(OC)c1OC`, for which the GI50 was 1.3 µM and the TGI was 12.1 µM.

On to `COc1cc2nnc3c4cccnc4[nH]c3c2cc1OC`, for which the GI50 is 7.26 µM and 2.53 µM; the TGI was 50 µM and 7.24 µM.

Consider `OC(c1ccccc1Br)(c1ccccc1Br)C(F)(F)F`, for which the TGI was 70 µM.

`O=C(COc1ccc(/C=C2\Oc3ccccc3C2=O)cc1)Nc1nc2ccccc2s1`: the GI50 was 39.4 µM and the TGI was above 100 µM.

Consider `CCc1cccc(CC)c1NC(=O)/C(Cl)=C(/Cl)C(=O)O`, for which the TGI is above 100 µM.

Turning to `OCC1CC[N-]CC1.OCC1CC[N-]CC1.[Cl][Pt+2]([Cl])([Cl])[Cl]`, the GI50 was 22.7 µM and the TGI worked out at 51.5 µM.

In the case of `CC(=O)OCC(=O)[C@@]1(O)CC[C@H]2[C@@H]3C[C@H](C)C4=CC(=O)C=C[C@]4(C)[C@@]3(F)[C@@H](O)C[C@@]21C`, the TGI is above 100 µM.

For `OCCCCC#Cc1ccccc1C#Cc1cccc(C(F)(F)F)c1`, the GI50 was 17.5 µM and the total growth inhibition concentration (TGI) was 37.2 µM.

Consider `COc1cc(/C=C/c2csnn2)cc(OC)c1OC`, for which the total growth inhibition concentration (TGI) was above 100 µM.

Take `CCCCCC/C=C\CCCCCCCCC(=O)c1cccc(OC)c1OC`: the TGI was above 100 µM.

`N#CC1CC(c2ccccc2)Nc2cc(Cl)ccc2N1` (stereo unspecified) gave a TGI above 100 µM.

The next test deals with RXF 393 renal. The test is described as follows: DTP human tumour cell line panel, 48 h.
Regarding `[O]=[V]([OH])([OH])[OH]`, the GI50 was above 100 µM and the TGI is above 100 µM.

For the molecule `Cc1cc(Cl)nc(N(CCNc2ccnc3cc(Cl)ccc23)Cc2ccco2)n1`, the GI50 was 1.24 µM and the TGI is 2.89 µM.

For the molecule `S=C1SCN(Cc2ccccc2)CN1Cc1ccco1`, the GI50 is 2 µM and the TGI was determined as 5.53 µM.

Take `COc1ccccc1CNCCN1C(=O)c2ccc3c4c(ccc(c24)C1=O)C(=O)N(CCNCc1ccccc1OC)C3=O`: the 50% growth inhibitory concentration (GI50) is 0.18 µM and the TGI was found to be 0.397 µM.

Take `CCCCCCCCCCCC[C@@H](O)[C@H]1CC[C@H]([C@H](O)CC[C@H](O)[C@@H]2CC[C@@H](CCCCCCCC3=C[C@H](C)OC3=O)O2)O1`: the concentration for total growth inhibition (TGI) was above 50 µM.

On to `O=C(c1cccs1)c1c(C(F)(F)F)n([O-])c2cc(Cl)c(Cl)cc2[n+]1=O`, for which the GI50 is 1.79 µM and the TGI came to 3.23 µM.

For the molecule `CSc1nc2nc(-c3ccccc3)c(C)c-2c2n1C(C)C(=O)N2` (stereo unspecified), the GI50 is 30.6 µM and the TGI is above 100 µM.

On to `COc1cc2nnc3c4cccnc4[nH]c3c2cc1OC`, for which the GI50 was 1.17 µM and 0.707 µM.

Turning to `OC(c1ccccc1Br)(c1ccccc1Br)C(F)(F)F`, the TGI was 34.5 µM.

On to `CCc1cccc(CC)c1NC(=O)/C(Cl)=C(/Cl)C(=O)O`, for which the TGI was determined as 47.2 µM.

As to `CC(=O)OCC(=O)[C@@]1(O)CC[C@H]2[C@@H]3C[C@H](C)C4=CC(=O)C=C[C@]4(C)[C@@]3(F)[C@@H](O)C[C@@]21C`, the TGI is above 100 µM.

The molecule `COc1cc(/C=C/c2csnn2)cc(OC)c1OC` yielded a TGI above 100 µM.

The molecule `CCCCCC/C=C\CCCCCCCCC(=O)c1cccc(OC)c1OC` came in with a TGI of 68.3 µM.

Molecule `N#CC1CC(c2ccccc2)Nc2cc(Cl)ccc2N1` (stereo unspecified) came in with a concentration for total growth inhibition (TGI) of 98.7 µM.

The next test concerns SK-MEL-2 melanoma. The experiment in a line: DTP human tumour cell line panel, 48 h.
As to `[O]=[V]([OH])([OH])[OH]`, the GI50 was above 100 µM and the TGI was above 100 µM.

For `CNCc1ccc(-c2cc(-c3nc(-c4ccc(S(=O)(=O)C(C)C)cc4)cnc3N)on2)cc1`, the GI50 is 2 µM and the TGI came to 16.4 µM.

Turning to `Cc1cc(Cl)nc(N(CCNc2ccnc3cc(Cl)ccc23)Cc2ccco2)n1`, the GI50 is 2.18 µM and the TGI worked out at 4.8 µM.

Regarding `S=C1SCN(Cc2ccccc2)CN1Cc1ccco1`, the GI50 is 3.04 µM and the TGI was determined as 11.9 µM.

On to `COc1ccccc1CNCCN1C(=O)c2ccc3c4c(ccc(c24)C1=O)C(=O)N(CCNCc1ccccc1OC)C3=O`, for which the GI50 was 0.712 µM and the TGI was 2.24 µM.

As to `CCCCCCCCCCCC[C@@H](O)[C@H]1CC[C@H]([C@H](O)CC[C@H](O)[C@@H]2CC[C@@H](CCCCCCCC3=C[C@H](C)OC3=O)O2)O1`, the TGI is above 50 µM.

As to `O=C(c1cccs1)c1c(C(F)(F)F)n([O-])c2cc(Cl)c(Cl)cc2[n+]1=O`, the GI50 was 2.7 µM and the TGI was above 100 µM.

As to `CSc1nc2nc(-c3ccccc3)c(C)c-2c2n1C(C)C(=O)N2` (stereo unspecified), the GI50 is 30.1 µM and the TGI came to 78.1 µM.

For `COc1cc(-c2nccc3[nH]c(-c4ccc5cc[nH]c5c4)nc23)cc(OC)c1OC`, the concentration for 50% growth inhibition (GI50) was below 0.01 µM and the TGI was determined as 3.06 µM.

`COc1cc2nnc3c4cccnc4[nH]c3c2cc1OC`: the GI50 is 13.8 µM and 11.3 µM; the concentration for total growth inhibition (TGI) was 50 µM and 37.9 µM.

For the molecule `OC(c1ccccc1Br)(c1ccccc1Br)C(F)(F)F`, the TGI stood at 35.5 µM.
